The values below come from patent US8575135B2 (Gilead Sciences, Inc., priority 2011, dated 2013).

Read-outs that look alike come from different tables or passages of the source.

Common to all, as to test: microbe, parasite or virus in culture
Holding throughout (conditions): Hepatitis C virus

For assay [1], the system named is NS5A chimeric genotype 1b Con1 replicon with genotype 4a ED43 strain NS5A gene. The class given is cell-based, HCV.
Assay [2] relates to 1a Pi-Rluc replicon with Q30R in genotype 1a NS5A. The class given is cell-based, HCV. The gist of the method: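 Q30R introduced by site-directed mutagenesis into genotype 1a Pi-RLuc replicon; RNA transiently transfected into Huh-7-derived cured-51 cells.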
In assay [3] the test system is NS5A chimeric genotype 2a JFH-1 replicon with genotype 2a J6 strain NS5A gene (M31 present). The class given is cell-based, HCV.
Assay [4] deals with NS5A chimeric genotype 2a JFH-1 replicon with genotype 2b MD2b-1 strain NS5A gene (M31 present). It is filed as cell-based, HCV. Put shortly: (§1)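 Genotype 3a (S52) and 4a (ED43) NS5A chimeras use 1b Con1 Pi-RLuc replicons, transfected transiently; 2b MD2b-1 NS5A chimera (M31) uses 2a JFH-1 RLuc-Neo replicon, transient or stable.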
For assay [5], the system named is NS5A chimeric genotype 1b Con1 replicon with genotype 3a S52 strain NS5A gene. It is filed as cell-based, HCV. Put shortly:
as §1

Assay [6] concerns stable HCV 1a RLuc replicon cells (genotype 1a H77 replicon). The class given is cell-based.
Assay [7] relates to stable HCV 2a JFH-1 Rluc replicon cells (L31 present in NS5A). The class given is cell-based.

Turning to `COC[C@H]1C[C@@H](c2ncc(-c3ccc4c(c3)COc3cc5c(ccc6nc([C@@H]7C[C@H](COC)CN7C(=O)[C@@H](NC(=O)OC)C(C)C)[nH]c65)cc3-4)[nH]2)N(C(=O)[C@@H](NC(=O)OC)C(C)C)C1` [Example OI, Methyl {(2S)-1-[(2S,4S)-2-(5-{2-[(2S,4S)-1-{(2S)-2-[(methoxycarbonyl)amino]-3-methylbutanoyl}-4-(methoxymethyl)pyrrolidin-2-yl]-1,11-dihydroisochromeno[4′,3′:6,7]naphtho[1,2-d]imidazol-9-yl}-1H-imidazol-2-yl)-4-(methoxymethyl)pyrrolidin-1-yl]-3-methyl-1-oxobutan-2-yl}carbamate], the EC50 in assay [1] (read-out: 4a) is less than 1 nM; in assay [1] (read-out: 4a (s) (nM)), 0.007 nM; in assay [1] (read-out: 4a (t) (nM)), 0.036 nM; in assay [2] (read-out: 1a Q30R), less than 1 nM; in assay [2] (read-out: 1a Q30R (nM)), 0.086 nM; in assay [3] (read-out: 2a J6), less than 1 nM. Moreover, the EC50 in assay [3] (read-out: 2a J6 (s) (nM)) is 0.326 nM; in assay [3] (read-out: 2a Jb (t) (nM)), 0.061 nM; in assay [4] (read-out: 2b) it was less than 1 nM; in assay [4] (read-out: 2b (s) (nM)) it was 0.629 nM; in assay [4] (read-out: 2b (t) (nM)) it was 0.178 nM; in assay [5] (read-out: 3a), less than 1 nM. Moreover, the EC50 in assay [5] (read-out: 3a (nM)) is 0.206 nM; in assay [6] (read-out: 1a) it was less than 1 nM; in assay [6] (read-out: 1a (nM)) it was 0.024 nM; in assay [7] (read-out: 2a JFH), less than 1 nM; in assay [7] (read-out: 2a JFH (nM)), 0.01 nM.

As to `COC[C@H]1C[C@@H](c2nc3ccc4cc5c(cc4c3[nH]2)OCc2cc(-c3cnc([C@@H]4CCCN4C(=O)[C@@H](NC(=O)OC)C(C)C)[nH]3)ccc2-5)N(C(=O)[C@H](N)c2ccccc2)C1` [Example OO, Methyl {(2S)-1-[(2S)-2-(5-{2-[(2S,4S)-1-[(2R)-2-amino-2-phenylacetyl]-4-(methoxymethyl)pyrrolidin-2-yl]-1,11-dihydroisochromeno[4′,3′:6,7]naphtho[1,2-d]imidazol-9-yl}-1H-imidazol-2-yl)pyrrolidin-1-yl]-3-methyl-1-oxobutan-2-yl}carbamate], the EC50 in assay [1] (read-out: 4a) is less than 1 nM; in assay [1] (read-out: 4a (s) (nM)) it was 0.018 nM; in assay [1] (read-out: 4a (t) (nM)), 0.086 nM; in assay [2] (read-out: 1a Q30R) it was less than 1 nM; in assay [2] (read-out: 1a Q30R (nM)), 0.139 nM; in assay [3] (read-out: 2a J6), less than 1 nM. Also, the EC50 in assay [3] (read-out: 2a J6 (s) (nM)) was 0.259 nM; in assay [3] (read-out: 2a Jb (t) (nM)), 0.028 nM; in assay [4] (read-out: 2b), less than 1 nM; in assay [4] (read-out: 2b (s) (nM)) it was 0.076 nM; in assay [4] (read-out: 2b (t) (nM)), 0.02 nM; in assay [5] (read-out: 3a), less than 1 nM. In addition, the EC50 was 0.028 nM in assay [5] (read-out: 3a (nM)); less than 1 nM in assay [6] (read-out: 1a); 0.072 nM in assay [6] (read-out: 1a (nM)); less than 1 nM in assay [7] (read-out: 2a JFH); 0.015 nM in assay [7] (read-out: 2a JFH (nM)).

In the case of `CCO[C@H]1C[C@@H](c2nc3ccc4cc5c(cc4c3[nH]2)OCc2cc(-c3cnc([C@@H]4CCCN4C(=O)[C@@H](NC(=O)OC)C(C)C)[nH]3)ccc2-5)N(C(=O)[C@@H](NC(=O)OC)C(C)C)C1` [Example OQ, Methyl {(2S)-1-[(2S)-2-(5-{2-[(2S,4S)-4-ethoxy-1-{(2S)-2-[(methoxycarbonyl)amino]-3-methylbutanoyl}pyrrolidin-2-yl]-1,11-dihydroisochromeno[4′,3′:6,7]naphtho[1,2-d]imidazol-9-yl}-1H-imidazol-2-yl)pyrrolidin-1-yl]-3-methyl-1-oxobutan-2-yl}carbamate], the EC50 in assay [1] (read-out: 4a) was less than 1 nM; in assay [1] (read-out: 4a (s) (nM)), 0.016 nM; in assay [1] (read-out: 4a (t) (nM)), 0.02 nM; in assay [2] (read-out: 1a Q30R), less than 1 nM; in assay [2] (read-out: 1a Q30R (nM)), 0.102 nM; in assay [3] (read-out: 2a J6), less than 1 nM. Besides, the EC50 in assay [3] (read-out: 2a J6 (s) (nM)) was 1.49 nM; in assay [3] (read-out: 2a Jb (t) (nM)), 0.378 nM; in assay [4] (read-out: 2b) it was less than 1 nM; in assay [4] (read-out: 2b (s) (nM)) it was 0.982 nM; in assay [4] (read-out: 2b (t) (nM)) it was 0.265 nM; in assay [5] (read-out: 3a), less than 1 nM. Also, the EC50 was 0.048 nM in assay [5] (read-out: 3a (nM)); less than 1 nM in assay [6] (read-out: 1a); 0.015 nM in assay [6] (read-out: 1a (nM)); less than 1 nM in assay [7] (read-out: 2a JFH); 0.007 nM in assay [7] (read-out: 2a JFH (nM)).

Turning to `CCO[C@H]1C[C@@H](c2nc3ccc4cc5c(cc4c3[nH]2)OCc2cc(-c3cnc([C@@H]4CCCN4C(=O)[C@H](NC(=O)OC)c4ccccc4)[nH]3)ccc2-5)N(C(=O)[C@@H](NC(=O)OC)C(C)C)C1` [Example OR, Methyl {(1R)-2-[(2S)-2-(5-{2-[(2S,4S)-4-ethoxy-1-{(2S)-2-[(methoxycarbonyl)amino]-3-methylbutanoyl}pyrrolidin-2-yl]-1,11-dihydroisochromeno[4′,3′:6,7]naphtho[1,2-d]imidazol-9-yl}-1H-imidazol-2-yl)pyrrolidin-1-yl]-2-oxo-1-phenylethyl}carbamate], the EC50 in assay [1] (read-out: 4a) was less than 1 nM; in assay [1] (read-out: 4a (s) (nM)), 0.006 nM; in assay [1] (read-out: 4a (t) (nM)), 0.036 nM; in assay [2] (read-out: 1a Q30R) it was less than 1 nM; in assay [2] (read-out: 1a Q30R (nM)) it was 0.059 nM; in assay [3] (read-out: 2a J6) it was less than 1 nM. Also, the EC50 is 0.16 nM in assay [3] (read-out: 2a J6 (s) (nM)); 0.068 nM in assay [3] (read-out: 2a Jb (t) (nM)); less than 1 nM in assay [4] (read-out: 2b); 0.109 nM in assay [4] (read-out: 2b (s) (nM)); 0.037 nM in assay [4] (read-out: 2b (t) (nM)); less than 1 nM in assay [5] (read-out: 3a). The EC50 in assay [5] (read-out: 3a (nM)) was 0.031 nM; in assay [6] (read-out: 1a), less than 1 nM; in assay [6] (read-out: 1a (nM)) it was 0.03 nM; in assay [7] (read-out: 2a JFH), less than 1 nM; in assay [7] (read-out: 2a JFH (nM)) it was 0.011 nM.

As for `COC(=O)N[C@H](C(=O)N1C[C@@H](C)C[C@H]1c1nc2ccc3cc4c(cc3c2[nH]1)OCc1cc(-c2cnc([C@@H]3C[C@H](C)CN3C(=O)[C@H](NC(=O)OC)c3ccccc3)[nH]2)ccc1-4)C(C)C` [Example PG, methyl {(1R)-2-[(2S,4S)-2-(5-{2-[(2S,4S)-1-{(2S)-2-[(methoxycarbonyl)amino]-3-methylbutanoyl}-4-methylpyrrolidin-2-yl]-1,11-dihydroisochromeno[4′,3′:6,7]naphtho[1,2-d]imidazol-9-yl}-1H-imidazol-2-yl)-4-methylpyrrolidin-1-yl]-2-oxo-1-phenylethyl}carbamate], the EC50 in assay [1] (read-out: 4a) is less than 1 nM; in assay [1] (read-out: 4a (s) (nM)), 0.008 nM; in assay [1] (read-out: 4a (t) (nM)), 0.063 nM; in assay [2] (read-out: 1a Q30R), less than 1 nM; in assay [2] (read-out: 1a Q30R (nM)) it was 0.043 nM; in assay [3] (read-out: 2a J6) it was less than 1 nM. The EC50 in assay [3] (read-out: 2a J6 (s) (nM)) is 0.335 nM; in assay [3] (read-out: 2a Jb (t) (nM)), 0.045 nM; in assay [4] (read-out: 2b) it was less than 1 nM; in assay [4] (read-out: 2b (s) (nM)), 0.119 nM; in assay [4] (read-out: 2b (t) (nM)), 0.027 nM; in assay [5] (read-out: 3a), less than 1 nM. Besides, the EC50 in assay [5] (read-out: 3a (nM)) is 0.05 nM; in assay [6] (read-out: 1a) it was less than 1 nM; in assay [6] (read-out: 1a (nM)), 0.033 nM; in assay [7] (read-out: 2a JFH) it was less than 1 nM; in assay [7] (read-out: 2a JFH (nM)) it was 0.018 nM.

As to `COC(=O)N[C@H](C(=O)N1[C@H](c2nc3ccc4cc5c(cc4c3[nH]2)OCc2cc(-c3cnc(C4CCCN4C(=O)[C@H](NC(=O)OC)c4ccccc4)[nH]3)ccc2-5)C[C@@H]2CCC[C@@H]21)C(C)C` (stereo partly drawn) [Example PN, methyl {(1R)-2-[2-(5-{2-[(2S,3aS,6aS)-1-{(2S)-2-[(methoxycarbonyl)amino]-3-methylbutanoyl}octahydrocyclopenta[b]pyrrol-2-yl]-1,11-dihydroisochromeno[4′,3′:6,7]naphtho[1,2-d]imidazol-9-yl}-1H-imidazol-2-yl)pyrrolidin-1-yl]-2-oxo-1-phenylethyl}carbamate], the EC50 in assay [1] (read-out: 4a) is less than 1 nM; in assay [1] (read-out: 4a (s) (nM)), 0.02 nM; in assay [1] (read-out: 4a (t) (nM)) it was 0.014 nM; in assay [2] (read-out: 1a Q30R), less than 1 nM; in assay [2] (read-out: 1a Q30R (nM)), 0.03 nM; in assay [3] (read-out: 2a J6), less than 1 nM. The EC50 in assay [3] (read-out: 2a J6 (s) (nM)) was 0.277 nM; in assay [3] (read-out: 2a Jb (t) (nM)), 0.027 nM; in assay [4] (read-out: 2b), less than 1 nM; in assay [4] (read-out: 2b (s) (nM)), 0.035 nM; in assay [4] (read-out: 2b (t) (nM)), 0.014 nM; in assay [5] (read-out: 3a), less than 1 nM. Also, the EC50 in assay [5] (read-out: 3a (nM)) was 0.016 nM; in assay [6] (read-out: 1a) it was less than 1 nM; in assay [6] (read-out: 1a (nM)), 0.015 nM; in assay [7] (read-out: 2a JFH) it was less than 1 nM; in assay [7] (read-out: 2a JFH (nM)) it was 0.009 nM.
